Source: patent publication US7851006B2, “Taste potentiator compositions and beverages containing same” (Cadbury Adams USA LLC, priority 2005, dated 2010)

What was measured:
[1] = tested on: sweetness perception of sweeteners; details: cited from earlier work
[2] = tested on: perceived sweetness of pH 3.2 buffered sucrose solution (expert panel members); assay: Sucrose Equivalent Value (SEV): expert panel matches test solution to stock sucrose solutions; type: in vivo; details: for effect on sweetness of the sucrose solution (dose response curve): 0 to 1000 ppm in pH 3.2 buffered 5% sucrose solution; for sweetness enhancement of sucrose solutions by different forms of 2,4-DHB: 500 ppm in pH 3.2 buffered 0%, 3%, 5%, 7% and 9% sucrose; for SEV (%): 500 ppm potentiator in pH 3.2 buffered solution containing 5% sucrose
Experimental: (§1) One method of measuring the perceived sweetness of a solution is to match it with a stock sucrose solution of known concentration. In the present experiments, the compound of interest is added at a predetermined concentration to a pH 3.2 buffered solution containing 5% sucrose. A number of expert panel members then taste the solution and compare it to a battery of stock sucrose solutions ranging from 3% to 15% at increments of 1%. Each panel member decides which sucrose solution is equisweet with the solution containing the compound of interest. The mean value is then reported as the SEV. Results are reported to 1 decimal place.
In accordance with this methodology, 3-HB was added to a pH 3.2 buffered solution containing 5% sucrose to produce solutions containing from 0 to 1000 ppm 3-HB in 100 ppm increments. […] From FIG. 1 it is apparent that as the dosage of 3-HB increases so does the sweetness of the resultant solution. However the effect is non-linear with each incremental addition having a diminishing effect. The maximum sweetness attainable would appear to be about 7.9% SEV (based on a 5% sucrose solution).
The same methodology as described in Example 1 was repeated with 2,4-DHB in place of 3-HB, to produce the dose response curve for 2,4-DHB (FIG. 2). […] The maximum attainable sweetness would appear to be about 6.7% SEV (based on a 5% sucrose solution).
500 ppm of a sweetener potentiator was added to a pH 3.2 buffered solution containing 5% sucrose and the SEV of the resultant solution determined.
500 ppm of the sweetener potentiator then was added to a 5% sucrose solution containing 500 ppm 3-HB to produce a series of solutions. […] The use of 500 ppm of 3-HB alone results in an SEV of 6.9% whereas in all cases but two (2,4-DHB and 3,4-DHB) the addition of a second sweetener potentiator results in a little change or even a decrease in SEV. This is highly surprising considering that all of the potentiators are shown to have SEVs greater than 5%.
The methodology was repeated to produce a series of solutions containing 500 ppm 2,4-DHB and 500 ppm of a second sweetener potentiator.
500 ppm of 3-HB, 500 ppm of 2,4-DHB and 500 ppm of 3,4-dihydroxybenzoic acid (3,4-DHB) were added to a pH 3.2 buffered solution containing 5% sucrose and the SEV determined. The results are shown in FIG. 7 together with other combinations of 3-HB, 2,4-DHB and 3,4-DHB for comparison. The solution containing the combination of 3-HB and 2,4-DHB (hatched) has a much higher SEV (8.7%) than the combination of either 3,4-DHB and 3-HB (7.6%) or the combination of 3,4-DHB and 2,4-DHB (6.8%). The three-way combination of the embodiment (hatched) is better still with an SEV of 9.8%.
pH 3.2 buffered solutions were prepared containing 0%, 3%, 5%, 7% and 9% sucrose. 500 ppm of 2,4-DHB acid, 500 ppm of the sodium salt of 2,4-DHB and 500 ppm of the potassium salt of 2,4-DHB were added individually to each of the sucrose solutions. The SEV for each of the solutions was then determined.
500 ppm of 3-aminobenzoic acid and 500 ppm of 4-aminobenzoic acid were individually added to separate pH 3.2 buffered solutions containing 5% sucrose and the SEVs of the resultant solutions were determined. The SEV of 3-aminobenzoic acid was about 7%, i.e., increased the sweetness intensity of 5% sucrose to about 7%. The SEV of 4-aminobenzoic acid was about 5.5-6%, i.e., increased the sweetness intensity of 5% sucrose to about 5.5-6%.

[3] = tested on: perceived sweetness of non-sucrose sweetener solutions (SEV about 5%); assay: SEV of non-sucrose sweetener solutions after addition of potentiators; type: in vivo; details: 500 ppm 3-HB alone versus with 500 ppm 2,4-DHB, pH 3.2
Experimental: as §1
The SEV of each sweetener solution was then evaluated after the addition 500 ppm of 3-HB, the addition of 500 ppm of 2,4-DHB and the addition of both 500 ppm 3-HB and 2,4-DHB.

O=C(O)c1ccc(O)cc1O [2,4-dihydroxybenzoic acid (2,4-DHB), 2,4-dihydroxybenzoic acid]
effect on sweetness intensity of sucralose and aspartame ([1]; FIGS. 1 and 2, Tables 1 and 2 of US 6,461,658): slightly inhibitory effect
listed taste character ([1]; US 5,232,735): substantially tasteless sweetness inhibitor
effect on sweetness delivery profile of sucralose ([1]; US 6,461,658): significantly reducing the length of time during which sucralose sweetness is perceived
effect on sweetness delivery profile of aspartame ([1]; US 6,461,658, compared with effect on sucralose): The same effect is not observed for aspartame
effect on sweetness of aspartame ([1]; WO99/15032): increase sweetness synergistically
effect with alitame, Ace-K, saccharin or a mixture of aspartame and Ace-K ([1]; WO99/15032, compared with effect on aspartame): same effect is not observed
effect on sweetness of 5% sucrose solution ([1]; addition of 0.2% 2,4-DHB, Canadian Patent No. 1208966): increase in sweetness
effect on sweetness of the sucrose solution (dose response curve) [2]: enhances the sweetness of the sucrose solution
sweetness enhancement of sucrose solutions by different forms of 2,4-DHB [2]: enhances the sweetness of the sucrose solution in every case

O=C(O)c1cc(O)c(O)c(O)c1 [3,4,5-tryhydroxybenzoic acid (3,4,5-THB), 3,4,5-tryhydroxybenzoic acid]
SEV (%) [2]: 5.1%

O=C(O)c1ccc(O)c(O)c1 [3,4-dihydroxybenzoic acid (3,4-DHB), 3,4-dihydroxybenzoic acid]
SEV (%) [2]: 6.4%

O=C(O)c1cccc(O)c1 [3-hydroxybenzoic acid (3-HB), 3-hydroxybenzoic acid]
sweetness enhancement of saccharin solution, alone versus combination [3]: enhances the sweetness to a greater degree alone than in combination with 2,4-DHB
effect on sweetness of sucrose, aspartame and saccharin ([1]; pH 2.0 to 5.5, EP 0132444 and US 4,627,987): enhance sweetness
effect on sweetness of the sucrose solution (dose response curve) [2]: enhances the sweetness of the sucrose solution
SEV of solution containing 500 ppm 2,4-DHB and 500 ppm of a second sweetener potentiator ([2]; second potentiator 500 ppm added to 500 ppm 2,4-DHB, 5% sucrose): significant positive effect

O=C([O-])c1ccc(O)cc1O.[K+] [potassium salt of 2,4-DHB]
sweetness enhancement of sucrose solutions by different forms of 2,4-DHB [2]: enhances the sweetness of the sucrose solution in every case

O=C([O-])c1ccc(O)cc1O.[Na+] [sodium salt of 2,4-DHB]
sweetness enhancement of sucrose solutions by different forms of 2,4-DHB [2]: enhances the sweetness of the sucrose solution in every case
